Literature values in patent publication US10709686B2, “Methods for treating pulmonary fibrosis” (David Weinstein Consulting, Inc., priority 2018, dated 2020).

Experiments:
FKBP52 = molecular target: T1, FKBP52 (Homo sapiens, UniProt Q02790); settings: treatment of fibroblasts for 2 hours
T1 construct: endogenous in cells
T1 sequence (Q02790 1-459): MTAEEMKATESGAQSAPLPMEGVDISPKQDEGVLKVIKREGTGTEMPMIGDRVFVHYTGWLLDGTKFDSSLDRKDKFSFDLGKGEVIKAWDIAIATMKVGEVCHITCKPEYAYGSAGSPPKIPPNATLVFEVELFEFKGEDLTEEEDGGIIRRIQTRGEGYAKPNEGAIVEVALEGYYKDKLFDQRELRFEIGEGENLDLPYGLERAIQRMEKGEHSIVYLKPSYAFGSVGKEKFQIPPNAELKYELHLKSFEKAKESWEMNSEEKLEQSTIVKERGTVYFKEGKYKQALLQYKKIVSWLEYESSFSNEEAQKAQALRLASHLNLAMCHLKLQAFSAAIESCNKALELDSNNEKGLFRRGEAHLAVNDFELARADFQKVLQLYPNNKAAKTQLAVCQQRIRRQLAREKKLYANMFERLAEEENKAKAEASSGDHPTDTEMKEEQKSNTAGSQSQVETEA

[1] = molecular target: T2, FK506 binding protein 4 (FKBP52) (Homo sapiens, UniProt Q02790)
T2 sequence (Q02790 1-459): T1 sequence (Q02790 1-459)

**Q.** With `CCC(C)(C)C(=O)C(=O)N1CCC[C@H]1C(=O)O` [RT175] as the compound, how does the “Translocation of FKBP52 to the nucleus” value (FKBP52) read?
**A.** results in the translocation of FKBP52 to the nucleus

**Q.** What about the “Binding affinity to FKBP52” value [1] of the same compound?
**A.** binds with high affinity
